Where two headings read alike, the source gives them in different places. Marks after values point to notes of the source that are not given here.
Key:
mouse lymphoma = details: cited from earlier work
Salmonella = details: cited from earlier work
[1] = test system: sister chromatid exchange; details: cited from earlier work
FU100 [2] = test system: FU100
chromosome aberrations = details: cited from earlier work
TA100, TA1535 = test system: TA100, TA1535
Excerpt: As stated above, the Ames Salmonella his+ plate incorporation assay evaluates genotoxic activity (mutagenicity) of chemical compounds on a set of genetically modified bacterial tester strains that are auxotrophic for the amino acid histidine. In practice, the Ames Assay simultaneously evaluates the genotoxic activity of a potential mutagen on several different target genes. The standard Ames Assay utilizes several different tester strains, each with a distinct mutation (e.g., transition, frameshift etc.) in one of the genes comprising the histidine (his) biosynthetic operon. The his operon encodes enzymes required for the biosynthesis of the amino acid histidine. For example, strain TA98 contains the hisD3052 allele which is reverted by a frameshift mutation, while strain TA1535 contains the hisG46 allele which is reverted by transition and transversion mutations. More specifically, the Ames Assay evaluates the ability of a chemical agent to increase the rate of reversion of auxotrophic strains of Salmonella to prototrophy.

FU100 [3] = test system: FU100; remark: listed apart in the source
Procedure: Briefly, in order to practice the disclosed mutation assay one-ml aliquots of exponentially growing bacteria are exposed to the test agent for two hours in the presence and absence of a metabolic activation system, such as a mammalian (i.e., rat, hamster or human) liver homogenate (S9-fraction or liver microsomal enzymes). The aliquots are then diluted, allowed to grow for 3 hours, and assessed for treatment-related toxicity/inhibition by optical density. The cultures are subsequently diluted a second time and grown overnight to permit full recovery from toxicity and to allow expression of the FU^R phenotype. Samples of the cultures are then plated in 384-well microtiter dishes in the presence of 2 μg/ml 5-FU and the pH-sensitive indicator bromcresol purple. Three days later positive wells containing FU^R colonies are detected by their yellow color and enumerated. Treated cultures are then compared to control plates to determine genotoxic activity.
For each mutation experiment, two frozen 1-ml aliquots of FU100 were quickly thawed in a 37° C. water bath, pelleted by centrifugation, washed to remove the DMSO, and suspended in 35 mL of MinE medium. The culture was shaken for approximately 1 hour at 37° C. until the optical density at 600 nm (OD600) reached the target density of 0.3. A 16-ml aliquot of culture was added to each of two 50-ml tubes containing 3.6 ml of a NADPH-generating system (5.6 mM glucose-6-phosphate, 4.5 mM NADP+, 5 mM sucrose, 110 mM Na2HPO4, 37 mM KCl, and 9 mM MgCl2) and either 0.4 ml rat liver S-9 or an equal volume of sodium phosphate buffer. Aliquots of these mixtures were distributed into three 12-well cluster dishes (one for exposure with S-9, one for exposure without S-9, one for controls with and without S-9), and exposed to test compounds as 1-ml aliquots for 2 hour as outlined in FIG. 1.
Following treatment, the 1-ml aliquots were transferred into 9 ml of warm MinE medium in a 50 ml tube and incubated at 37° C. on a rotary wheel for 3 hours. Next, 20 ml of medium was added to each culture tube and 0.25 ml aliquots were transferred to a 96-well plate for OD600 measurements to assess toxicity (OD Day 1). […] Bulk cultures were then incubated overnight in the dark at 30° C. to permit recovery from toxicity and to allow time for the test cells to express the FU^R phenotype.
The next day, OD600 was again assessed to adjust cell number plated on 5-FU plates (OD Day 2; 100 μl of the culture diluted with 150 μl MinE medium for OD600 measurements). For plating, a 35 μl aliquot of each culture was added to 31.4 mL of MinE medium with 2 μg/ml of 5-FU and 10 μg/ml of bromcresol purple. The mixture was then dispersed into a 384-well plate (75 μl/well) and placed at 37° C. for 3 days in a humidified incubator.
The data obtained for both survival (OD day 1), relative number of cells plated (OD day 2), and number of positive wells were imported into an Excel template.
Table 8 summarizes the criteria for positive result in 5-FU assay using the FU100 tester strain described and claimed herein. […] A positive compound was defined when two or more doses met the aforementioned criteria.

wild-type cells = assay: Growth inhibition by 5-fluoroorotic acid (block of de novo pyrimidine synthesis); format: cell-based, Salmonella; details: 50 μg/ml; reversed by addition of 20 μg/ml uracil
Excerpt: It was recognized that reducing the background mutation frequency by eliminating preexisting FU^R mutants could increase the sensitivity of the assay. Since the only mechanism leading to 5-FU resistance in Salmonella involves loss of uracil phosphoribosyltransferase, a uracil salvage enzyme and product of the upp gene, it was theorized that blockage of the de novo pyrimidine synthesis and supplementation with uracil should permit growth of wild-type cells and selection against FU^R upp mutants.
It was also determined that upp mutants cannot grow in the presence of 5-fluorooroticacid and uracil, presumably due to their inability to utilize exogenous uracil. […] Frozen stocks of FU100 were prepared using cultures grown under these conditions (described in Materials and Methods) in order to produce “cleansed” working stocks with reduced background.

micronucleus = details: cited from earlier work
[4] = NTP Results Report 12 Aug. 2002
[5] = NTP Results Report 12 Aug. 2002 or cited reference (footnotes f, g, i, j)
[6] = in the presence of S9 activation (+), approximate, first dose with greater than 50% survival by optical density on Day 1
[7] = without S9 activation (−), approximate, first dose with greater than 50% survival by optical density on Day 1
[8] = TA100 or TA1535, plate incorporation or liquid suspension
[9] = in the presence of S9 activation (+), FU100, 2 h exposure
[10] = in the presence of S9 activation (+), lowest dose tested giving a positive response
[11] = text and figure legend (FIG. 6), with or without S9
[12] = without S9 activation (−), FU100, 2 h exposure
[13] = without S9 activation (−), lowest dose tested giving a positive response

Procedure for TA100 his+: A study was then conducted to determine the optimal concentration of the selective agent 5-FU. The growth rate was determined for cultures in MinE containing up to 8 μg/ml 5-FU.

Structure (SMILES) | NTP Results: ML = mouse lymphoma (mouse lymphoma; [4]) | NTP Results: SA = Salmonella (Salmonella; [5]) | NTP Results: SC = sister chromatid exchange [1, 4] | LD50 (FU100 [2]; [6]) [µg/mL] | LD50 (FU100 [2]; [7]) [µg/mL] | NTP Results: CA = chromosome aberrations (chromosome aberrations; [4]) | response in the standard Ames assay (in words) (TA100, TA1535; [8]) | Results (5-FU assay) (FU100 [3]; [9]) | Lowest Positive Dose (FU100 [3]; [10]) [µg/mL] | response in the 5-FU Assay (in words) (FU100 [3]; [11]) | Results (5-FU assay) (FU100 [3]; [12]) | Lowest Positive Dose (FU100 [3]; [13]) [µg/mL] | NTP Results: SA = Salmonella (Salmonella) | Results (5-FU assay) (FU100 [3]) | NTP Results: MN = micronucleus (micronucleus; [4]) | further results
ClCc1ccccc1 [Benzyl Chloride] | + | +^w | + | >150 | >1500 | + | weak or equivocal response | Pos | 50 | easy to detect | Pos | 28 |  |  |  | 
[N-]=[N+]=[N-] [Sodium Azide] |  | + | + | >30 | >50 | − | extremely sensitive | Pos^w | 90 |  | Pos^w | 160 |  |  |  | concentration producing a positive response in the 5-FU Assay (FU100 [3]; S9 condition not stated): greater than 90 μg/ml
O=C(O)c1[nH]c(=O)[nH]c(=O)c1F [5-fluorooroticacid, 5-fluoroorotic acid] |  |  |  |  |  |  |  |  |  |  |  |  |  |  |  | effect on growth of wild-type cells (wild-type cells): inhibited growth
Nc1ncn([C@@H]2O[C@H](CO)[C@@H](O)[C@H]2O)c(=O)n1 [5-Azacytidine] |  |  |  | >5 | >3 |  |  |  |  |  |  |  | (SA+, CA+, SC+, ML+, MN+) | Pos |  | NTP Results: ML = mouse lymphoma (mouse lymphoma): (SA+, CA+, SC+, ML+, MN+); NTP Results: SC = sister chromatid exchange [1]: (SA+, CA+, SC+, ML+, MN+); NTP Results: CA = chromosome aberrations (chromosome aberrations): (SA+, CA+, SC+, ML+, MN+); NTP Results: MN = micronucleus (micronucleus): (SA+, CA+, SC+, ML+, MN+)
CC1CCC(C(C)C)C(O)C1 (centres unmarked) [Menthol] | (SA−, CA−, SC−, ML−, MN−) | (SA−, CA−, SC−, ML−, MN−) | (SA−, CA−, SC−, ML−, MN−) | >9 | >16 | (SA−, CA−, SC−, ML−, MN−) |  | Neg |  |  | Neg |  |  |  | (SA−, CA−, SC−, ML−, MN−) | 
CCC1CO1 (centres unmarked) [1,2-Epoxybutane] | + | + | + | >5000 | >5000 | + | weak or equivocal response | Pos | 500 | positive compounds in non-toxic concentrations | Pos | 8.9 |  |  | − | response in the 5-FU Assay (in words) (FU100 [3]; text and figure legend (FIG. 6), with or without S9, listed as 1,2-epoxybutane): easy to detect
OO [Hydrogen Peroxide] |  |  |  |  |  |  |  |  |  | easy to detect |  |  | (SA+^w) | Pos |  | response in the standard Ames assay (in words) (TA100, TA1535): weak or equivocal response; response in the 5-FU Assay (in words) (FU100 [3]): positive compounds in toxic concentrations; Lowest Positive Dose (FU100 [3]; Salmonella typhimurium): 3 µg/mL; Results (5-FU assay) (FU100 [3]; s9): Neg
O=C1CN(/N=C/c2ccc([N+](=O)[O-])o2)C(=O)N1 [Nitrofurantoin] |  |  |  |  |  |  |  |  |  |  |  |  | (SA+, CA+, SC+, ML+, MN−) | Pos |  | NTP Results: ML = mouse lymphoma (mouse lymphoma): (SA+, CA+, SC+, ML+, MN−); NTP Results: SC = sister chromatid exchange [1]: (SA+, CA+, SC+, ML+, MN−); LD50 (FU100 [2]; Salmonella typhimurium): >1 µg/mL; NTP Results: CA = chromosome aberrations (chromosome aberrations): (SA+, CA+, SC+, ML+, MN−); NTP Results: MN = micronucleus (micronucleus): (SA+, CA+, SC+, ML+, MN−); Lowest Positive Dose (FU100 [3]; Salmonella typhimurium): 0.1 µg/mL
O=P1(N(CCCl)CCCl)NCCCO1 (centres unmarked) [Cyclophosphamide•H2O] |  | (SA+, CA+, SC+, MN+) | (SA+, CA+, SC+, MN+) | >300 | >1500 | (SA+, CA+, SC+, MN+) | positive | Pos^w | 1500 | weak positive | Neg |  |  |  | (SA+, CA+, SC+, MN+) | 
O=c1[nH]cc(F)c(=O)[nH]1 [5-FU, 5-fluorouracil] |  |  |  |  |  |  |  |  |  |  |  |  |  |  |  | 5-FU concentration that significantly inhibited culture growth (TA100 his+): greater than or equal to 1 μg/ml; 5-FU concentration at which cultures continued to grow (longer doubling times) (TA100 his+; cultures in MinE, up to 8 μg/ml 5-FU, data not shown): less than or equal to 0.5 μg/ml

Reference: patent publication US7923204B2, “Forward mutation assay based on 5-fluorouracil resistance” (priority 2003, dated 2011)
